Experimental data reported in US9434687B2, “Detection of synthetic cannabinoids” (priority 2011, dated 2016).

Columns and labels:
Format in all cases: binding, sheep
[1] = tested on: antibodies raised to Immunogens I & II; experiment: Competitive ELISA, selected molecules as potential cross-reactants (Table 3); conditions: for % CR / IC50: Table 3, standard conc 750.00 ng/ml
Protocol: (a) The wells of an enhanced binding 96 well polystyrene microtiter plate were coated with the Ig fraction of the antiserum raised to Immunogen I (Hapten A-BTG—example 5) and diluted in 10 mM Tris, pH8.5 (125 μl/well). The appropriate antibody coating concentration was determined using standard ELISA checkerboard techniques. The plate was incubated for 2 hours at 37° C., washed 4 times over a 10-minute period with Tris buffered saline containing Tween 20 (TBST) and tapped dry. Standard solutions of JWH synthetic cannabinoids, metabolites and selected molecules were prepared in TBST and 50 μl of each was added to the appropriate wells. 75 μl of conjugate (Hapten A-HRP) diluted in Tris buffer containing EDTA, D-mannitol, sucrose, thimerosal and BSA, was added to each of the wells. The appropriate dilution of conjugate was also determined using standard ELISA checkerboard techniques. The plate was incubated at 25° C. for 1 hour. The excess unbound conjugate was removed by washing 6 times over a 10-minute period with TBST and tapped dry. 125 μl of tetramethylbenzedine (TMB) substrate solution was added to each well of the plate that was then incubated for 15-20 minutes in the dark at room temperature. The reaction was terminated by addition of 125 μl of 0.2M sulphuric acid to each well. The absorbance was then measured at 450 nm using a microtiter plate reader.
Employing each series of standards, calibration curves were generated and these were used to determine the specificity of the immunoassay for the JWH synthetic cannabinoids, metabolites and selected molecules. The results of this study are presented in Tables 1 to 3, cross-reactivity being calculated according to the following formula: % CR=IC50,JWH-018/IC50,CR×100
Where % CR is the percentage cross-reactivity, IC50, JWH-018 is the concentration of JWH-018 that causes 50% displacement of signal and IC50, CR is the concentration of JWH synthetic cannabinoid/metabolite/selected molecule that causes 50% displacement of signal.
The antibody produced from Immunogen I is able to bind to JWH molecules known to be incorporated in herbal therapeutics such as JWH-018, proposed metabolites such as M2 (Wintermeyer et al 2010), and potential metabolites such as M5. The detection and quantification of other JWH SSCs is also provided for, the antibodies of the invention bind a range of molecules comprising the 3-(1-naphthoyl)-1H-indole structure (e.g. JWH-071, JWH-398, M1 etc.). […] The concept of using the antibodies of the invention to detect and determine future stealth synthetic cannabinoids is highlighted in Table 4; the 5-fluoropentyl derivative known to bind the CB 1 receptor, but which as of yet has not been detected in herbal therapeutics or similar substances, binds to antibodies raised from Immunogens I and II.

[2] = tested on: IgG fraction of antiserum raised to Immunogen I; conditions: Antibody to Immunogen I; cross-reactants at 100 ng/ml; 1000 ng/ml; standard JWH-018
Outline: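 Plates were coated with the IgG fraction of sheep antiserum raised to Immunogen I and incubated with standards (JWH-018, 0-40 ng/ml) plus hapten-HRP conjugate for 1 h at 25° C. Detection used TMB, read at 450 nm. IC50 was taken from a 4-parameter fit as the concentration giving half the zero-standard OD.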

[3] = tested on: IgG fraction of antiserum raised to Immunogen VIII; conditions: Antibody to Immunogen VIII; cross-reactants at 100 ng/ml; 1000 ng/ml; standard JWH-018
[4] = tested on: IgG fraction of antiserum raised to Immunogen VII; conditions: Antibody to Immunogen VII; cross-reactants at 100 ng/ml; 1000 ng/ml; standard JWH-015
[5] = tested on: IgG fraction of antiserum raised to Immunogen IV; conditions: Antibody to Immunogen IV; cross-reactants at 100 ng/ml; 1000 ng/ml; standard JWH-018
[6] = tested on: IgG fraction of antiserum raised to Immunogen II; experiment: Competitive ELISA, antibody RS1833B12 to Immunogen II, tracer ESC4555 (Example 36); conditions: Antibody to Immunogen II; cross-reactants at 100 ng/ml; 1000 ng/ml; standard JWH-018

Row | Structure (SMILES) | % CR [1] [%] | IC50 [1] [µg/mL] | % B/B0 [2] [%] | % B/B0 [3] [%] | % B/B0 [4] [%] | % B/B0 [5] [%] | binding / cross-reaction with antibodies raised from Immunogens I and II (in words) [1] | % B/B0 [6] [%]
1 | CCCCCn1cc(C(=O)O)c2ccccc21 [3-Carboxy-N-pentyl-1H-indole, 3-carboxy-1-pentyl-1H-indole] | <0.28 | >0.75 |  |  |  |  |  | 
2 | COc1cccc2[nH]cc(CCN(C)C)c12 [4-Methoxypsilocin] | <0.28 | >0.75 |  |  |  |  |  | 
3 | O=C(O)Cc1c[nH]c2ccc(O)cc12 [5-hydroxyindole-3-acetic acid] | <0.28 | >0.75 | 98.71 | 108.24 | 99.46 | 96.61 |  | 
4 | OCCc1c[nH]c2ccc(O)cc12 [5-hydroxytryptophol] | <0.28 | >0.75 | 93.30 | 102.93 | 98.45 | 94.51 |  | 
5 | CCCCCc1cc(O)c2c(c1)OC(C)(C)[C@@H]1CCC(CO)=C[C@@H]21 [11-Hydroxy-δ-9-THC] | <0.28 | >0.75 |  |  |  |  |  | 
6 | CCCCCCC(C)(C)c1ccc([C@H]2CCC[C@@H](O)C2)c(O)c1 [CP-49,497-C7] | <0.28 | >0.75 | 101.20 | 86.95 | 94.23 | 96.84 |  | 
7 | CCCCCc1cc(O)c2c(c1)OC(C)(C)c1ccc(C)cc1-2 [Cannabinol] | <0.28 | >0.75 | 86.60 | 94.03 | 95.43 | 94.74 |  | 
8 | CCCCCc1cc(O)c2c(c1)OC(C)(C)[C@@H]1CCC(C)=C[C@@H]21 [Delta 9 THC] | <0.28 | >0.75 | 102.66 | 96.10 | 96.76 | 93.62 |  | 
9 | O=C(O)c1c[nH]c2ccccc12 [Indole-3-carboxylic Acid] | <0.28 | >0.75 | 101.26 | 96.28 | 96.90 | 93.42 | do not cross-react | 
10 | CCn1cc(C(=O)c2cccc3ccccc23)c2ccccc21 [JWH-071] |  |  |  |  |  |  | bind | 
11 | CCCCCn1cc(C(=O)c2cccc3c(Cl)cccc23)c2ccccc21 [JWH-398 5-chloronaphthyl isomer] |  |  | 35.53 | 19.67 | 91.33 | 7.06 |  | 23.50
12 | O=C(c1ccc(Cl)c2ccccc12)c1cn(CCCCCO)c2ccccc12 [JWH-398 N-(5-hydroxypentyl) metabolite] |  |  | 48.07 | 51.33 | 82.97 | 22.01 |  | 67.49
13 | CCCCCn1cc(C(=O)c2ccccc2OC)c2ccccc21 [RCS-4 2-methoxy isomer] |  |  | 29.14 | 29.32 | 87.27 | 15.28 |  | 42.74
14 | NCCc1c[nH]c2ccc(O)cc12 [Serotonin] | <0.28 | >0.75 |  |  |  |  |  | 
